According to patent EP4692073A1, “CYCLIC AMINE DERIVATIVE, AND COMPOSITION AND USE THEREOF” (Shanghai Jingxin Biomedical Co., Ltd., priority 2023, dated 2024):

Legend:
Lp(a) = assay: In vivo Lp(a) inhibition in cynomolgus monkeys; conditions: 3 mg/kg oral gavage once daily for 5 days, serum Lp(a) 8 hours after administration on Day 5
Protocol: • 1. Experimental purpose: The purpose of this test is to test the inhibitory effect of the compounds of the present invention on Lp(a) in cynomolgus monkeys • 2. Experimental instruments and reagents: Fully automatic biochemical analyzer (Hitachi 7600 model), • 3. Experimental methods: The cynomolgus monkeys were housed with a standard light cycle (12 hours light/12 hours dark), at a room temperature of 18-26°C and a relative humidity of 40-70%, with drinking water provided continuously for 24 hours, and feed was provided to the animals twice daily, in the morning (about 10:30) and in the afternoon (about 15:00). Five days prior to the study, the cynomolgus monkeys were randomly assigned to groups (n=3/group) based on their body weight and baseline serum Lp(a) concentration for the study. The administration volume was calculated according to the body weight of the animals on the first day of administration, and the administration volume was 5 mL/kg, administered once daily by oral gavage for 5 consecutive days, and the dosage was 3 mg/kg, and the solvent was 1% HEC and 0.25% Tween 80.
The adaptation period (after fasting overnight), before administration on Day 1, and 8 hours after administration on Day 5. […] The serum Lp(a) level was detected using a fully automatic biochemical analyzer. […]

TA98 = assay: Salmonella typhimurium reverse mutation test, TA98; type: cell-based; set-up: key: + indicates a positive mutagenic result; - indicates a negative mutagenic result
Protocol: (§1) The revived strains or a single colony from the master plate were inoculated into the broth, and cultured in a thermostat gas bath vibrator at 100 to 120 rpm and 37±1°C for 10 to 16 hours, marked and stored for later use. The bottom agar medium (containing an appropriate amount of agar, Vogel-Bonner buffer, 20% glucose solution and 20% magnesium sulfate solution) was poured into a six-well plate, approximately 20mL-25mL into each well, and allowed to cool and solidify naturally, marked each well and stored for later use.
(§2) Three wells were set up in each group for parallel experiments. The top agar medium was sterilized under high pressure and kept warm at about […]. In each test tube, 0.1mL of negative control (DMSO) or positive control or test sample, 0.1mL of bacterial solution suspension, 0.5mL of phosphate buffer (0.2M PBS) (-S9) or 0.5mL of S9 mixed solution (+S9) and 2.5mL top culture medium were added, after vortex mixing, and then quickly and evenly spread on the culture dish which was already spreaded with the bottom agar medium. After natural cooling and solidification, the culture dish was inverted and placed in a 37°C incubator for 48 to 72 hours. After culturing for 48 to 72 hours, the culture dish was taked out, and the number of revertant colonies in each well was counted, the growth background was observed under a microscope to determine whether there was antibacterial or bactericidal activity, and the experimental results were recorded.

TA1537 = assay: Salmonella typhimurium reverse mutation test, TA1537; type: cell-based; set-up: key: + indicates a positive mutagenic result; - indicates a negative mutagenic result
Protocol: as §1, §2

TA100 = assay: Salmonella typhimurium reverse mutation test, TA100; type: cell-based; set-up: key: + indicates a positive mutagenic result; - indicates a negative mutagenic result
Protocol: as §1, §2

TA102 = assay: Salmonella typhimurium reverse mutation test, TA102; type: cell-based; set-up: key: + indicates a positive mutagenic result; - indicates a negative mutagenic result
Protocol: as §1, §2

TA1535 = assay: Salmonella typhimurium reverse mutation test, TA1535; type: cell-based; set-up: key: + indicates a positive mutagenic result; - indicates a negative mutagenic result
Protocol: as §1, §2

[1] = TA98, no S9 mixture, 62µg/ dish
[2] = TA98, no S9 mixture, 185µg/ dish
[3] = TA98, no S9 mixture, 556µg/ dish
[4] = TA98, no S9 mixture, 1667µg/ dish
[5] = TA98, no S9 mixture, 5000µg/ dish
[6] = TA98, with S9 mixture, 62µg/ dish
[7] = TA98, with S9 mixture, 185µg/ dish
[8] = TA98, with S9 mixture, 556µg/ dish
[9] = TA98, with S9 mixture, 1667µg/ dish
[10] = TA98, with S9 mixture, 5000µg/ dish
[11] = TA1537, no S9 mixture, 62µg/ dish
[12] = TA1537, no S9 mixture, 185µg/ dish
[13] = TA1537, no S9 mixture, 556µg/ dish
[14] = TA1537, no S9 mixture, 1667µg/ dish
[15] = TA1537, no S9 mixture, 5000µg/ dish
[16] = TA1537, with S9 mixture, 62µg/ dish
[17] = TA1537, with S9 mixture, 185µg/ dish
[18] = TA1537, with S9 mixture, 556µg/ dish
[19] = TA1537, with S9 mixture, 1667µg/ dish
[20] = TA1537, with S9 mixture, 5000µg/ dish
[21] = TA100, no S9 mixture, 62µg/ dish
[22] = TA100, no S9 mixture, 185µg/ dish
[23] = TA100, no S9 mixture, 556µg/ dish
[24] = TA100, no S9 mixture, 1667µg/ dish
[25] = TA100, no S9 mixture, 5000µg/ dish
[26] = TA100, with S9 mixture, 62µg/ dish
[27] = TA100, with S9 mixture, 185µg/ dish
[28] = TA100, with S9 mixture, 556µg/ dish
[29] = TA100, with S9 mixture, 1667µg/ dish
[30] = TA100, with S9 mixture, 5000µg/ dish
[31] = TA102, no S9 mixture, 62µg/ dish
[32] = TA102, no S9 mixture, 185µg/ dish
[33] = TA102, no S9 mixture, 556µg/ dish
[34] = TA102, no S9 mixture, 1667µg/ dish
[35] = TA102, no S9 mixture, 5000µg/ dish
[36] = TA102, with S9 mixture, 62µg/ dish
[37] = TA102, with S9 mixture, 185µg/ dish
[38] = TA102, with S9 mixture, 556µg/ dish
[39] = TA102, with S9 mixture, 1667µg/ dish
[40] = TA102, with S9 mixture, 5000µg/ dish
[41] = TA1535, no S9 mixture, 62µg/ dish
[42] = TA1535, no S9 mixture, 185µg/ dish
[43] = TA1535, no S9 mixture, 556µg/ dish
[44] = TA1535, no S9 mixture, 1667µg/ dish
[45] = TA1535, no S9 mixture, 5000µg/ dish
[46] = TA1535, with S9 mixture, 62µg/ dish
[47] = TA1535, with S9 mixture, 185µg/ dish
[48] = TA1535, with S9 mixture, 556µg/ dish
[49] = TA1535, with S9 mixture, 1667µg/ dish
[50] = TA1535, with S9 mixture, 5000µg/ dish

For O=C(O)[C@@H](Cc1cccc(CN(Cc2cccc(C[C@H](C(=O)O)[C@H]3CCNC3)c2)Cc2cccc(C[C@H](C(=O)O)[C@H]3CCNC3)c2)c1)[C@H]1CCNC1 [Comparative Example 1], the “Lp(a) inhibition rate” value (Lp(a)) was 32.87±17.30%, the mutagenicity (TA98; [1]) was “-” and the mutagenicity (TA98; [2]) was “+”. The mutagenicity (TA98; [3]) was “+”, the mutagenicity (TA98; [4]) was “+” and the mutagenicity (TA98; [5]) was “+”. For the same compound, the mutagenicity (TA98; [6]) was “-”, the mutagenicity (TA98; [7]) was “-” and the mutagenicity (TA98; [8]) was “+”. The mutagenicity (TA98; [9]) was “+”, the mutagenicity (TA98; [10]) was “+” and the mutagenicity (TA1537; [11]) was “-”. The mutagenicity (TA1537; [12]) was “-”, the mutagenicity (TA1537; [13]) was “-” and the mutagenicity (TA1537; [14]) was “-”. For the same compound, the mutagenicity (TA1537; [15]) was “-”, the mutagenicity (TA1537; [16]) was “-” and the mutagenicity (TA1537; [17]) was “-”. The mutagenicity (TA1537; [18]) was “-”, the mutagenicity (TA1537; [19]) was “-” and the mutagenicity (TA1537; [20]) was “-”. For the same compound, the mutagenicity (TA100; [21]) was “-”, the mutagenicity (TA100; [22]) was “-” and the mutagenicity (TA100; [23]) was “-”. For the same compound, the mutagenicity (TA100; [24]) was “-”, the mutagenicity (TA100; [25]) was “-” and the mutagenicity (TA100; [26]) was “-”. For the same compound, the mutagenicity (TA100; [27]) was “-”, the mutagenicity (TA100; [28]) was “-” and the mutagenicity (TA100; [29]) was “-”. The mutagenicity (TA100; [30]) was “-”, the mutagenicity (TA102; [31]) was “-” and the mutagenicity (TA102; [32]) was “-”. For the same compound, the mutagenicity (TA102; [33]) was “-”, the mutagenicity (TA102; [34]) was “-” and the mutagenicity (TA102; [35]) was “-”. The mutagenicity (TA102; [36]) was “-”, the mutagenicity (TA102; [37]) was “-” and the mutagenicity (TA102; [38]) was “-”. For the same compound, the mutagenicity (TA102; [39]) was “-”, the mutagenicity (TA102; [40]) was “-” and the mutagenicity (TA1535; [41]) was “-”. The mutagenicity (TA1535; [42]) was “-”, the mutagenicity (TA1535; [43]) was “-” and the mutagenicity (TA1535; [44]) was “-”. For the same compound, the mutagenicity (TA1535; [45]) was “-”, the mutagenicity (TA1535; [46]) was “-” and the mutagenicity (TA1535; [47]) was “-”. The mutagenicity (TA1535; [48]) was “-”, the mutagenicity (TA1535; [49]) was “-” and the mutagenicity (TA1535; [50]) was “-”.
O=C(O)[C@@H](Cc1cccc(CN(Cc2cccc(C[C@H](C(=O)O)[C@H]3CCNC3)c2)C(=O)c2cccc(C[C@H](C(=O)O)[C@H]3CCNC3)c2)c1)[C@H]1CCNC1 [Example 5] was tested, and the “Lp(a) inhibition rate” value (Lp(a)) was 50.23±20.41%, the mutagenicity (TA98; [1]) was “-” and the mutagenicity (TA98; [2]) was “-”. For the same compound, the mutagenicity (TA98; [3]) was “-”, the mutagenicity (TA98; [4]) was “-” and the mutagenicity (TA98; [5]) was “-”. For the same compound, the mutagenicity (TA98; [6]) was “-”, the mutagenicity (TA98; [7]) was “-” and the mutagenicity (TA98; [8]) was “-”. The mutagenicity (TA98; [9]) was “-”, the mutagenicity (TA98; [10]) was “-” and the mutagenicity (TA1537; [11]) was “-”. For the same compound, the mutagenicity (TA1537; [12]) was “-”, the mutagenicity (TA1537; [13]) was “-” and the mutagenicity (TA1537; [14]) was “-”. For the same compound, the mutagenicity (TA1537; [15]) was “-”, the mutagenicity (TA1537; [16]) was “-” and the mutagenicity (TA1537; [17]) was “-”. For the same compound, the mutagenicity (TA1537; [18]) was “-”, the mutagenicity (TA1537; [19]) was “-” and the mutagenicity (TA1537; [20]) was “-”. For the same compound, the mutagenicity (TA100; [21]) was “-”, the mutagenicity (TA100; [22]) was “-” and the mutagenicity (TA100; [23]) was “-”. For the same compound, the mutagenicity (TA100; [24]) was “-”, the mutagenicity (TA100; [25]) was “-” and the mutagenicity (TA100; [26]) was “-”. The mutagenicity (TA100; [27]) was “-”, the mutagenicity (TA100; [28]) was “-” and the mutagenicity (TA100; [29]) was “-”. The mutagenicity (TA100; [30]) was “-”, the mutagenicity (TA102; [31]) was “-” and the mutagenicity (TA102; [32]) was “-”. The mutagenicity (TA102; [33]) was “-”, the mutagenicity (TA102; [34]) was “-” and the mutagenicity (TA102; [35]) was “-”. The mutagenicity (TA102; [36]) was “-”, the mutagenicity (TA102; [37]) was “-” and the mutagenicity (TA102; [38]) was “-”. The mutagenicity (TA102; [39]) was “-”, the mutagenicity (TA102; [40]) was “-” and the mutagenicity (TA1535; [41]) was “-”. For the same compound, the mutagenicity (TA1535; [42]) was “-”, the mutagenicity (TA1535; [43]) was “-” and the mutagenicity (TA1535; [44]) was “-”. For the same compound, the mutagenicity (TA1535; [45]) was “-”, the mutagenicity (TA1535; [46]) was “-” and the mutagenicity (TA1535; [47]) was “-”. The mutagenicity (TA1535; [48]) was “-”, the mutagenicity (TA1535; [49]) was “-” and the mutagenicity (TA1535; [50]) was “-”.
